Laboratory results from patent EP3753560A1, “COMPOUNDS FOR THE TREATMENT OF NEUROMUSCULAR DISORDERS” (NMD Pharma A/S, priority 2019, dated 2020).

Columns and labels:
[1] = test system: isolated rat soleus muscles; assay: Measurement of force in an in vitro model: recovery of nerve-stimulated contractile force of isolated soleus nerve-muscle preparations after tubocurarine; details: for Point increase (%): percentage of the initial force restored, 50 µM test compound, after 40 mins of compound exposure, in continued presence of 115 nM tubocurarine (90 mins pre-incubation), 30°C
From the text: • The terms "C1-3 alkyl" and "C1-5 alkyl" refers to a branched or unbranched alkyl group having from […] carbon atoms respectively, including but not limited to methyl, ethyl, prop-1-yl, prop-2-yl, 2-methyl-prop-1-yl, 2-methyl-prop-2-yl, 2,2-dimethyl-prop-1-yl, but-1-yl, but-2-yl, 3-methyl-but-1-yl, 3-methyl-but-2-yl, pent-1-yl, pent-2-yl and pent-3-yl. • The term "C3-5 cycloalkyl" and "C3-6 cycloalkyl" refers to a group having three to five or three to six carbon atoms respectively including a monocyclic or bicyclic carbocycle, including but not limited to cyclopropyl, cyclobutyl, cyclopentyl and cyclohexyl. • The term "C2-5 alkenyl" refers to a branched or unbranched alkenyl group having from two to five carbon atoms, two of which are connected by a double bond, including but not limited to ethenyl, propenyl, isopropenyl, butenyl, isobutenyl, pentenyl and isopentenyl. • The term "C2-5 alkynyl" refers to a branched or unbranched alkynyl group having from […] carbon atoms, two of which are connected by a triple bond, including but not limited to ethynyl, prop-1-ynyl, prop-2-ynyl, but-1-ynyl, but-2-ynyl, but-3-ynyl, buta-1,3-diynyl, pent-1-ynyl, pent-2-ynyl, pent-3-ynyl, pent-4-ynyl, penta-2,4-diynyl and penta-1,3-diynyl. • The term "5 membered aromatic heterocycle" refers to an aromatic group having five carbon atoms wherein between 1 and 3 carbon atoms in the ring have been replaced with a heteroatom selected from the group comprising nitrogen, sulphur and oxygen. Binding to the heterocycle may be at the position of the heteroatom or via a carbon atom of the heterocycle. […] The term "plasma half-life" is the time that it takes the compound to lose one-half of its pharmacologic activity in the blood plasma. • The term "treatment" refers to the combating of a disease or disorder. "Treatment" or "treating," as used herein, includes any desirable effect on the symptoms or pathology of a disease or condition as described herein, and may include even minimal changes or improvements in one or more measurable markers of the disease or condition being treated. […] In some embodiments, the term "treatment" encompasses amelioration and prevention. • The term "amelioration" refers to moderation in the severity of the symptoms of a disease or condition. Improvement in a patient's condition, or the activity of making an effort to correct, or at least make more acceptable, conditions that are difficult to endure related to patient's conditions is considered "ameliorative" treatment. • The term "prevent" or "preventing" refers to precluding, averting, obviating, forestalling, stopping, or hindering something from happening, especially by advance action. • The term "reversal" or "reversing" refers to the ability of a compound to restore nerve-stimulated force in skeletal muscle exposed either ex vivo or in vivo to a non-depolarizing neuromuscular blocking agent or another pharmaceutical that is able to depress neuromuscular transmission • The term "non-depolarizing blockers" refers to pharmaceutical agents that antagonize the activation of acetylcholine receptors at the post-synaptic muscle fibre membrane by blocking the acetylcholine binding site on the receptor.
The current disclosure relates to compounds that inhibit CIC-1 ion channels and increase muscle excitability and thereby improve muscle function in clinical conditions where muscle activation is failing. Such conditions result in loss of contractile function of skeletal muscle, weakness and excessive fatigue. In this series of experiments the compounds were tested for their ability to restore contractile function of isolated rat muscle when the neuromuscular transmission had been compromised akin to neuromuscular disorders.
Experimentally, soleus muscles from 4-5 wk old rats were isolated with the motor nerve remaining attached. […]

human CIC-1 channels = molecular target: T1, human CIC-1 channels (Homo sapiens, UniProt P35523); assay: Automated whole cell patch-clamp (Qpatch 16) on CHO cells expressing human CIC-1; type: cell-based; details: difference in half activation voltage between cell patches treated intracellularly with compound and control (vehicle) patches; positive shift reflects CIC-1 inhibition
T1 construct: host or cells: CHO (Chinese hamster ovary) cells, constitutive expression
Method: Experiments were performed using an automated patch clamp system that allowed high throughput testing of whole cell patches together with both intracellular and extracellular addition of compound.
Automated whole cell patch clamp experiments were performed with the Qpatch 16 system (Sophion Bioscience, Ballerup, Denmark) at room temperature. Data acquisition and analysis were performed in the Qassay software (ver. 5.6, Odense).
To evoke CIC-1 currents in whole cell patches, the membrane potential was initially stepped from a holding potential of -30 mV to +60 mV for 100 ms and then to various test voltages (sweeps) ranging from +120 mV to -140 mV in steps of 20 mV for 300 ms. To obtain tail currents, the membrane potential was stepped to -100 mV after each test voltage for 300 ms and then relaxed to -30 mV for 2 sec between sweeps (Figure 2). I/V relationships for whole cell instant and steady state current amplitudes were obtained by plotting average current densities at the beginning and at the end of the 300 ms step against the membrane potential (Figure 3).
In order to determine the relative overall open probability (P0), the instantaneous tail currents were normalized to the maximal tail current obtained following the most positive voltage step and plotted against the test voltage. […]
To evaluate the compound effect on CIC-1, when applied directly to the intracellular side of the cell membrane, the half activation voltage, V1/2, was determined from whole cell patches with compound added to the intracellular solution and then compared to V1/2 determined from control cell patches with only vehicle added to the intracellular solution. Additionally, the effect of extracellular added compound was evaluated by determine V1/2 and steady state current amplitudes before and after exchanging the extracellular solution to contain compound.
The difference in half activation voltage of CIC-1 channels, ΔV1/2, was determined as the difference between the cell patches treated intracellularly with compound and control cells patches and is reported in Table 4 below. […]

T1 sequence (P35523 whole entry): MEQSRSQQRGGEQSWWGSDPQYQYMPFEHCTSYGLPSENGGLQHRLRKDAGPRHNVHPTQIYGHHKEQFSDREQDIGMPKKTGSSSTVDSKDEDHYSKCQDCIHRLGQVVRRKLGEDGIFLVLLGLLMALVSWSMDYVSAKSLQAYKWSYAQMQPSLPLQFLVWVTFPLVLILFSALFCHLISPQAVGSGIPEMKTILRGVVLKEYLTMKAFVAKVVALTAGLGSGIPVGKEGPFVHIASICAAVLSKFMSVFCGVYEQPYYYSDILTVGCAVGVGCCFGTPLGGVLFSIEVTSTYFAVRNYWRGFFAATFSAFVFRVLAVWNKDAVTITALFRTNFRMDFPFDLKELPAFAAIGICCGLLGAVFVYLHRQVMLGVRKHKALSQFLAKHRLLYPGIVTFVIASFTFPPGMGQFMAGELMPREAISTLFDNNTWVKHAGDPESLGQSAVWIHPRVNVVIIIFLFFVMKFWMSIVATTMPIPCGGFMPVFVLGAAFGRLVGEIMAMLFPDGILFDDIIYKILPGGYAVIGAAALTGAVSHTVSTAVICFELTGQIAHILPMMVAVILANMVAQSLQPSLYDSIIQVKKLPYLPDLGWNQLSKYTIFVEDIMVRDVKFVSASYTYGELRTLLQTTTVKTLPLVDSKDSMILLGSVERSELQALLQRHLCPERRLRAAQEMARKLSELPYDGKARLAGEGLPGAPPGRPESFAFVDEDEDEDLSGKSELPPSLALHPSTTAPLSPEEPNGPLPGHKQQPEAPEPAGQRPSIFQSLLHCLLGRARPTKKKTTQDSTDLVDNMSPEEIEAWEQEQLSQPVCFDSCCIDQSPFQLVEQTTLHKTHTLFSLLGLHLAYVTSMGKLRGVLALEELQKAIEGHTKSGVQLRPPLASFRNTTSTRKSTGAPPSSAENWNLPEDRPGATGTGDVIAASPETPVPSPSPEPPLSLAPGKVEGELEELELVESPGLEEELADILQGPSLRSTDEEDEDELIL

Q: With `O=C(O)[C@@H]1CCc2cc(Br)cc(-c3ccon3)c2O1` (single isomer, unassigned) [Compound A-13] as the molecule, how does the “Point increase (%)” value [1] read?
A: Its value is 24%.

Q: For `O=C(O)Cn1cc(-c2ccon2)c2cc(Cl)ccc21` [Compound A-4, 2-[5-chloro-3-(1,2-oxazol-3-yl)-1H-indol-1-yl]acetic acid], which “Point increase (%)” value [1] is on record?
A: Its value is 12%.

Q: How did the “Point increase (%)” value [1] turn out when `O=C(O)Cn1cc(-c2ccon2)c2cc(Br)ccc21` [Compound A-12, 2-[5-bromo-3-(1,2-oxazol-3-yl)-1H-indol-1-yl]acetic acid] was run?
A: The value was 13%.

Q: Which results are given for `O=C(O)[C@@H]1CCCN1c1ccc(Br)cc1F` [Compound A-14, (2S)-1-(4-bromo-2-fluorophenyl)pyrrolidine-2-carboxylic acid]?
A: ΔV1/2 (mV) (human CIC-1 channels): 8.4 mV; Point increase (%) [1]: 26%

Q: With `O=C(O)C1CCc2cc(Br)cc(-c3ccon3)c2O1` (stereo not drawn) [Compound A-15, 6-bromo-8-(1,2-oxazol-3-yl)-3,4-dihydro-2H-1-benzopyran-2-carboxylic acid] as the molecule, how does the “average force (AUC) relative to initial force” value ([1]; Figure 1: 50 µM compound added after 90 min incubation in tubocurarine, 3 muscles) read?
A: Its value is “recovered”.

Q: With `O=C(O)Cn1ccc2cc(Br)ccc21` [Compound A-24, 2-(5-bromo-1H-indol-1-yl)acetic acid] as the molecule, how does the “ΔV1/2 (mV)” value (human CIC-1 channels) read?
A: The value was 27.9 mV.

Q: And the “Point increase (%)” value [1]?
A: The value was 10%.

Q: How did the “ΔV1/2 (mV)” value (human CIC-1 channels) turn out when `CC(C(=O)O)n1ccc2cc(Br)ccc21` (stereo not drawn) [Compound A-25, 2-(5-bromo-1H-indol-1-yl)propanoic acid] was run?
A: Its value is 5.5 mV.
